Test results taken from patent publication US9908863B2, “Piperidinylcarbazoles” (Merck Patent GmbH, priority 2013, dated 2018).
Structures can show the parent of a compound that is named as a salt. Where two headings read alike, the source gives them in different places.

Legend:
[1] = system: Chloroquine/Pyrimethamine resistant Plasmodium falciparum K1; assay: In vitro sensitivity assay: Plasmodium falciparum by 3H-hypoxanthine incorporation; assay type: cell-based; conditions: read-out: IC50 K1 in vitro
Experimental: Biological Test 1: In Vitro Sensitivity Assays: Plasmodium falciparum by ^3H-Hypoxanthine Incorporation.
The strain used for this assay is the Chloroquine/Pyrimethamine resistant Plasmodium falciparum K1 and drugs such as Chloroquine (10 mg/mL stock; start concentration 1000 ng/mL) and Artemisinine (Qinghaosu) (5 mg/mL stock; start concentration 10 ng/mL) were used as standards. Human red blood cells were used as host cells and the activity was measured using a ^3H-hypoxanthine incorporation assay.
Into a Costar™ 96-well microtitre plates, 100 μL of medium (RPMI 1640 without hypoxanthine 10.44 g/L, HEPES 5.94 g/L, Albumax® 5 g/L, Neomycin 10 mL/L, NaHCO3 2.1 g/L) were added to the wells of row containing drugs available from stock solutions of 10 mg/mL in DMSO (compounds were kept at −20° C. Since DMSO is toxic, care had to be taken not to exceed a final concentration of 0.5% DMSO). Then 100 μL of medium were added at rt to all wells of the plate. By means of a 12-well multi-pipette serial drug dilutions were prepared. A serial dilution factor of 1:2 is thus obtained. One row of wells without drugs served as controls. Next 100 μL of medium+washed human red blood cells A+(RBC) was added to the last 4 wells of the first row; these columns serve as background controls (that may be caused by 3H-hypoxanthine incorporation into RBC without the parasite). Into the remaining wells, 100 μL of medium+RBC+P. falciparum mix was added. The plates were placed for 48 h into a chamber at 37° C. gassed with a 4% CO2, 3% O2, 93% N2 mix. Finally 50 μL of medium+3H-hypoxanthine [(500 μL ^3H-hypoxanthine stock+500 μL EtOH+49 mL medium (0.5 μCi)] was added to each well and the plates were put back at 37° C. for 24 h into the chamber and gassed with a 4% CO2, 3% O2, 93% N2 mix. The plates were then read using the Cell Harvester and the data were transferred into a graphic program (Excel) and are evaluated to determine the IC50 by linear interpolation.

[2] = system: P. falciparum strain NF54; assay: P. falciparum growth assay ([3H] hypoxanthine incorporation); assay type: cell-based; conditions: Plasmodium falciparum, NF54, read-out: IC50 NF54
Experimental: • Cultivation of P. falciparum:
P. falciparum strain NF54 was obtained from the Research and Reference Reagent
Resource Center (MR4) (Manassas, Va.). The two strains were maintained in vitro by a modification of the method of Trager and Jensen. Cultures were maintained in A positive (A+) human erythrocytes suspended at 5% hematocrit in complete medium. 5 g albumax II (Gibco-Invitrogen, Cat No#11021037), 2.5 mg gentamicin (Sigma Aldrich), 25 mM HEPES (Invitrogen), 5 mg hypoxanthine (Sigma), and 1 L of RPMI 1640 (Invitrogen, Cat No#11875085). Cultures were grown in 100 mm petri-dishes (BD Falcon) at a volume of 15 mL and were kept in a standard gas environment of 4% CO2 and 3% 02 at temperature 37° C. in a tri-gas incubator (Cat#3131, Thermo Scientific Forma Series II Water Jacketed). Parasite growth and morphology were observed daily using thin smears at 100× (oil immersion) magnification following staining with Geimsa stain. • P. falciparum growth assay:
The protocol assesses the compound efficacy against the growth of P. falciparum in-vitro.
Parasite growth was detected in assay by the traditional [3H] hypoxanthine incorporation assay as previously described by Desjardins and colleagues (Antimicrob. Agents Chemother., 16(6), 710, 1979). To perform the [3H] hypoxanthine incorporation assay, the new antimalarial agents were serially diluted 1:1 into hypoxanthine-free complete medium to a final volume of 100 μL (final antimalarial agent concentration range, 10,000 nM to 4.8 nM may change in special case) in 96 well sterile cell culture plates. […] All cultures used in the study are albumax II adopted. The microtiter plates were incubated in chamber in a standard gas environment at 37° C. for 72 h. After 48 h of incubation and prior to addition of 50 μL (0.5 μCi/well) 3H-Hypoxanthine (specific activity, 20 Ci/mmol, Conc. 1.0 mCi/ml; American Radiolabeled Chemicals, Inc., St. Louis, Mo.), culture growth was assessed by making the smears that ensures the culture has grown in % p and assay plate is further incubated for 24 h. Following the incubation period, the plates were harvested with a FilterMate cell harvester (Perkin Elmer) onto unifilter-96 GF/B plates, washed with distilled water to remove excess radiochemical and plates were kept for drying 37° C. overnight or 60° C. for 1 h. 50 μL of Microscint scintillation cocktail (Microscint-High Efficiency LSC-Cocktail; Perkin Elmer) added in the unifilter-96 GF/B plates and kept for 15-20 min. The plates were counted in a Top Count NXT microplate scintillation and luminescence counter (Perkin Elmer). The mean values for [3H]hypoxanthine incorporation in parasitized control and non-parasitized control erythrocytes were calculated.
Assay data were analyzed using Graph pad prism ver.5 software. A variable sigmoid dose response curve is plotted keeping log concentrations at X-axis and % inhibition at Y-axis.

[3] = system: Plasmodium berghei, (GFP ANKA strain); assay: Plasmodium berghei acute in vivo model; conditions: NMRI mice, 50 mg/kg/day i.p., 4 daily doses; for decrease of parasitemia: day 4, relative to untreated control group; for Mean Survival Days: survival monitored up to 30 days
Experimental: Biological Test 2: Plasmodium berghei Acute In Vivo Model.
For this study Plasmodium berghei, (GFP ANKA strain) was used as parasite strain and drugs such as Chloroquine (Sigma C6628) Artemisinin (Sigma 36, 159-3) were used as positive controls.
For the assay a donor mouse with approximately 30% parasitaemia, heparinised blood (containing 50 μL of 200 μ/mL Heparin) was taken and diluted in physiological saline to 10^8 parasitized erythrocytes per mL. An aliquot (0.2 mL) of this suspension was injected intravenously (i.v.) into experimental groups of 3 mice (NMRI mice, females, 20-22 g), and a control group of 3 mice. The mice were studied in a standard macrolon cages type II at 22° C. and 60-70% relative humidity, and were fed with special pellets (PAB45—NAFAG 9009, Provimi Kliba A G, CH-4303 Kaiseraugst, Switzerland), water ad libitum. 4 hours post-infection—the experimental groups were treated with a single dose i.p of the tested drug. The dosage was 50 mg/kg/day and the drug concentration (DMSO 10%) was adjusted so that 0.1 mL/10 g was injected. In a similar manner after 24, 48 and 72 hours post-infection—the experimental groups were treated with a single daily dose i.p. Finally 24 hours after the last drug treatment, 1 μL tail blood was taken and dissolved in 1 mL PBS buffer. Parasitaemia was determined with a FACScan (Becton Dickinson) by counting 100'000 red blood cells. The difference between the mean value of the control group and those of the experimental groups was then calculated and expressed as a percent relative to the control group (=activity). The survival of the animals was monitored up to 30 days and mice surviving for 30 days were checked for parasitaemia and subsequently euthanised. A compound is considered curative if the animal survives to day 30 post-infection with no detectable parasites. The result is expressed as 1) reduction of parasitaemia on day 4 in % as compared to the untreated control group, and 2) mean survival of the group.
B. Franke-Fayard et al., Mol. Biochem. Parasitol., 137(1),23-33, 2004

[4] = system: P falciparum PF3D/^0087/N9; assay: In vivo efficacy in a murine model of falciparum-malaria (4-day test); set-up: species or system Plasmodium falciparum
Source text: Biological Experiment 5: In Vivo Efficacy Against P falciparum PF3D/^0087/N9 for the compound No. 6 Described in Example 6 • In vivo activity in a murine model of falciparum-Malaria Angulo-Barturen I, Jimenez-Diaz M B, Mulet T, Rullas J, Herreros E, et al. (2008) A Murine Model of falciparum-Malaria by In Vivo Selection of Competent Strains in Non-Myelodepleted Mice Engrafted with Human Erythrocytes. PLoS ONE 3(5): e2252. doi:10.1371/journal.pone.0002252.
This study measures the therapeutic efficacy of compound no. 6 against Plasmodium falciparum growing in peripheral blood of NODscidIL2Rynull mice engrafted with human erythrocytes. The antimalarial efficacy of compound no. 6 is assessed using a “4-day test”.
The parameters of efficacy estimated in the study are a) the dose of compound no. 6 in mg·kg-1 that reduces parasitemia at day 7 after infection by 90% with respect to vehicle-treated mice (parameter denoted as ED90) and b) the estimated average daily exposure in whole blood of compound no. 6 necessary to reduce P. falciparum parasitemia in peripheral blood at day 7 after infection by 90% with respect to vehicle-treated mice (parameter used to measure the potency of the compound and denoted as AUCED90).

[5] = Erythrocyte, P. falciparum K1 strain in human red blood cells, 3H-hypoxanthine incorporation

In the case of `O[C@H]1CNCC[C@@H]1n1c2ccc(F)cc2c2cc(F)ccc21` [Compound 9, (3S,4S)-4-(3,6-Difluoro-carbazol-9-yl)-piperidin-3-ol hydrochloride salt], the IC50 ([1]; K1, Erythrocyte) is reported as 16 nM and the IC50 [2] is reported as 307 nM.
With `O[C@@H]1CNCC[C@H]1n1c2ccc(Cl)cc2c2cc(Cl)ccc21` [Compound 7, (3R,4R)-4-(3,6-Dichloro-carbazol-9-yl)-piperidin-3-ol hydrochloride salt] the IC50 ([1]; K1, Erythrocyte) was 9 nM, the decrease of parasitemia [3] was 100% and the “Mean Survival Days” value [3] was 30 days. The IC50 [2] was 41.2 nM.
In the case of `O[C@H]1CNCC[C@@H]1n1c2ccc(F)cc2c2cc(Cl)ccc21` [Compound 3, (3S,4S)-4-(3-Chloro-6-fluoro-carbazol-9-yl)-piperidin-3-ol hydrochloride salt], the IC50 ([1]; K1, Erythrocyte) is reported as 3 nM.
`Fc1ccc2c(c1)c1cc(Cl)ccc1n2[C@H]1CCNC[C@H]1F` [Compound 13, 3-Chloro-6-fluoro-9-((3R,4S)-3-fluoro-piperidin-4-yl)-9H-carbazole hydrochloride salt] gave an IC50 ([1]; K1, Erythrocyte) of 886 nM.
`CC(C)(C)OC(=O)N1CC[C@@H](O)[C@H](n2c3ccc(F)cc3c3cc(Cl)ccc32)C1` (racemic) [Compound 2, trans-3-(3-Chloro-6-fluoro-carbazol-9-yl)-4-hydroxy-piperidine-1-carboxylic acid tert-butyl ester] showed an IC50 [1, 5] of 127 nM.
`Fc1ccc2c(c1)c1cc(Cl)ccc1n2[C@@H]1CCNC[C@@H]1F` [Compound 12, 3-Chloro-6-fluoro-9-((3S,4R)-3-fluoro-piperidin-4-yl)-9H-carbazole hydrochloride salt] was tested, and the IC50 ([1]; K1, Erythrocyte) was 3670 nM.
With `O[C@H]1CCNC[C@@H]1n1c2ccc(Cl)cc2c2cc(Cl)ccc21` (racemic) [Compound 8, trans-3-(3,6-dichloro-9H-carbazol-9-yl)piperidin-4-ol] the IC50 [1, 5] was 781 nM.
Work on `CC(C)(C)OC(=O)N1CC[C@H](n2c3ccc(F)cc3c3cc(Cl)ccc32)[C@@H](O)C1` (racemic) [Compound 1, trans-4-(3-Chloro-6-fluoro-carbazol-9-yl)-3-hydroxy-piperidine-1-carboxylic acid tert-butyl ester] yielded an IC50 [1, 5] of 315 nM.
`O[C@H]1CNCC[C@@H]1n1c2ccc(Cl)cc2c2cc(Cl)ccc21` [Compound 6, (3S,4S)-4-(3,6-Dichloro-carbazol-9-yl)-piperidin-3-ol hydrochloride salt] was tested, and the IC50 ([1]; K1, Erythrocyte) was 10 nM, the decrease of parasitemia [3] was 99.8% and the “Mean Survival Days” value [3] was 30 days. For the same molecule, the IC50 [2] was 40.2 nM, the ED90 ([4]; dose reducing parasitemia at day 7 after infection by 90% vs vehicle-treated mice, NODscidIL2Rynull mice engrafted with human erythrocytes) was 22.5 mg/kg and the AUCED90 ([4]; estimated average daily exposure in whole blood needed to reduce parasitemia at day 7 by 90% vs vehicle-treated mice) was 28.5 μg · h · ml^−1 · day^−1.
With `O[C@H]1CNCC[C@@H]1n1c2ccc(Cl)cc2c2cc(Cl)ccc21` (racemic) [Compound 5, Trans-4-(3,6-Dichloro-carbazol-9-yl)-piperidin-3-ol hydrochloride salt] the IC50 ([1]; K1, Erythrocyte) was 9 nM and the IC50 [2] was 109 nM.
For `O[C@@H]1CNCC[C@H]1n1c2ccc(F)cc2c2cc(Cl)ccc21` [Compound 4, (3R,4R)-4-(3-Chloro-6-fluoro-carbazol-9-yl)-piperidin-3-ol hydrochloride salt], the IC50 ([1]; K1, Erythrocyte) was 3 nM.
